Ends that are not written are not given here.
Assays:
[1] = tested on: cellular fraction RA (enriched with epidermal adult stem cells); test: Comets test on cellular fraction RA after UVB irradiation; assay type: cell-based, human; settings: RA cells cultured 24 hours with peptide at 1%, then UVB 60 mJ/cm^2
Method: The comets test is a test that allows damage caused to DNA to be quantified at a cellular level.
To this end, in order to confirm the protective effect of a peptide compound according to the present invention, cells of the RA type were cultured for 24 hours with the peptide compound of sequence SEQ ID NO: 2 at a concentration of 1%, and then irradiated with
UVB radiation at 60 mJ/cm^2. […] The cells were then removed by trypsination from their carrier, and then centrifuged at 900 rpm for 5 minutes before being concentrated and counted.
A specific cell count (25,000 cells) was then incorporated into a 0.75% Low Melting agarose gel, and then deposited on a glass slide previously coated with 1% agarose. The slides were then immersed in a lysis solution for 1.5 hours at 4° C., and then in an alkaline solution for 20 minutes at 4° C. The cells were then lysed and the DNA denatured. The slides were immersed in an electrophoresis solution before applying an electric field (20 V-250 mA). The thus denatured DNA was subjected to migration within an agarose gel at 4° C. Applying a DNA fluorescent dye on the slides (2 μg/ml propidium iodide) allowed the DNA to be observed in the form of comets in those cases where it had been damaged.
Quantification software is used to determine the average Tail moment applied to each condition being tested. […]

[2] = tested on: Keratin K19; test: Keratin K19 immunolabeling in UV-irradiated hair follicles maintained in culture; assay type: cell-based; settings: hair follicles treated with 1% peptide 24 hours before UV irradiation (UVA 5 J/cm, UVB 200 mJ/cm^2); image analysis
Method: The hair follicles were sampled from a biopsy using a scalpel and fine pliers, and then cultured in 24-well plates using William's E medium in the presence of antibiotics (0.2% Primocin), 10 μg/ml insulin, 10 ng/ml hydrocortisone and 2 mmol/L L-glutamine.
The follicles were either treated or not with the 1% peptide compound SEQ ID NO: 2 in Williams' medium and then incubated for 24 hours. UV irradiation was then applied (UVA: 5 J/cm, UVB 200 mJ/cm^2), and the follicles were then re-cultured for 24 hours. At the end of the experiment, the follicles were incorporated within OCT and frozen at −196° C. (liquid nitrogen). The follicles were then placed in a cryostat in order to prepare 6-μm sections at a temperature of −23° C. The slides containing the sections were placed in an acetone bath for 10 minutes (fixing) and then rinsed.
The fixed sections were rinsed once with PBS for 5 minutes, and then wrapped in Pappen. Each section was incubated with 5 μl 5%-BSA for 30 minutes. Then, 50 μl of primary anti-Cytokeratin K19 antibody (Progen, Mouse monoclonal) diluted to 1/50th were added and incubated for one hour with stirring in a humid chamber. After rinsing with PBS for 30 minutes, 50 μl of a fluorescence-labeled secondary antibody was added and left for one hour in the dark with stirring in a humid chamber. […]

[3] = tested on: Survivin protein; test: Survivin protein expression by Western Blotting on cultured cellular fractions RA and SA1; assay type: cell-based, human; settings: 48 hours, compound diluted to 3% (from a 10^-4 M solution)
Method: To investigate the role of the CPC proteins in the maintenance and protection of epidermal adult stem cells under various types of stress, several fractions of primary cells of human epidermis were prepared. Fractioning was carried out based on the adhesion time of cells to collagen IV: less than 20 minutes corresponds to fast adhesion (fraction RA), less than 5 hours, to slow adhesion No 1 (fraction SA1), less than 16 hours, to slow adhesion No 2 (fraction SA2), and lastly, non-adhering keratinocytes (fractions NA). […]
An investigation of the modulator effect of the peptide SEQ ID NO: 2 was conducted by evaluating the expression of the Survivin protein by Western Blotting on the cultured cellular fractions RA and SA1. The Western Blot technique is a conventional semi-quantitative method for assessing the proportion of proteins in cells.
Fractions RA and SA1 were grown in boxes 100 mm in diameter at 37° C. in a humidified atmosphere containing 5% CO2 for 48 hours with or without the compound, diluted to 3% (from a 10^−4 M solution). […] The quantitative evaluation of the proteins in the cells is performed using the Chemiimager software (Alpha Innotech Corporation USA). The amount of proteins is expressed as a percentage of the light intensity compared with that of the control conditions, under which no treatment has been received.

[4] = tested on: RA and TOTAL keratinocytes; test: MITOSOX test (mitochondrial production of free radicals under H2O2 or UVB stress); assay type: cell-based, human; settings: peptide at 1% and 3%, 48 hours, stress 5 mM H2O2 30 minutes or UVB 100 mJ/cm^2
Excerpt: Mitosox is a reactant marketed by Invitrogen (molecular probes M36008). It is used during UV and H2O2 oxidative stress. It uses microscopic imaging to measure the mitochondrial production of free radicals (ROS) in cells. More particularly, Mitosox is specific to the superoxide anion, which is the predominant form of ROS.
Mitosox is applied to living cells: it permeates the membrane and once inside the cell, diffuses rapidly and specifically within the mitochondria. Once in the mitochondria, Mitosox is oxidized by the superoxide anion into a compound which provides red fluorescence. This reactant is easily oxidized by the superoxide anion but not by other free radicals, nor by reactive species of nitrogen (NOS).
RA and TOTAL keratinocytes (where TOTAL denotes an entire cellular fraction) were treated three times per day with the peptide compound of SEQ ID NO: 3 at concentrations of 1% and 3%, for 48 hours.
In a second step, the cells were placed under stress, caused: • either by exposure to 5 mM H2O2 solution for 30 minutes; • or by UVB radiation at 100 mJ/cm^2.
After stress application, the cells were rinsed and then returned into a suitable medium for one hour at 37° C. in a culture incubator. […] The results were read using fluorescence microscopy.

Question: How did the “Tail Moment decrease vs UVB control” value [1] turn out when “Arg-Glu-Met-Asn-Trp-NH2 (REMNW-NH2) [SEQ ID NO: 2]” was run?
Answer: 44.7%

Question: What about the “fluorescent values of Keratin K19” value [2] of the same substance?
Answer: +102.7%

Question: And the “expression of the Survivin protein” value ([3]; fraction RA (very rich in epidermal adult stem cells))?
Answer: increased

Question: What about the “expression of the Survivin protein” value ([3]; fraction SA1 (less rich in epidermal adult stem cells)) of the same substance?
Answer: increased

Question: With DAREMNWDT [SEQ ID NO: 3] as the substance, how does the “number of fluorescent cells (Mitosox, free radical production)” value [4] read?
Answer: extremely low
